Results reported in patent US20220259212A1, “INHIBITORS OF INDOLEAMINE 2,3-DIOXYGENASE AND/OR TRYPTOPHAN 2,3-DIOXYGENASE” (Idorsia Pharmaceuticals Ltd, priority 2019, published 2022).

Assays:
[1] = target: T1, Recombinant full-length human IDO1 (Homo sapiens, UniProt P14902); test: IDO1 enzymatic assay (NFK quantified by LCMS); format: biochemical; settings: 2 nM enzyme, 5 μM L-tryptophan, 30 min pre-incubation, pH6.5; mean if measured multiple times; read-out: hIDO activity (IC50 in nM)
T1 construct: Recombinant full-length human IDO1 with a N-terminal hexahistidine tag; hexahistidine (N); made in house; host or cells: E. coli
T1 sequence (P14902 whole entry): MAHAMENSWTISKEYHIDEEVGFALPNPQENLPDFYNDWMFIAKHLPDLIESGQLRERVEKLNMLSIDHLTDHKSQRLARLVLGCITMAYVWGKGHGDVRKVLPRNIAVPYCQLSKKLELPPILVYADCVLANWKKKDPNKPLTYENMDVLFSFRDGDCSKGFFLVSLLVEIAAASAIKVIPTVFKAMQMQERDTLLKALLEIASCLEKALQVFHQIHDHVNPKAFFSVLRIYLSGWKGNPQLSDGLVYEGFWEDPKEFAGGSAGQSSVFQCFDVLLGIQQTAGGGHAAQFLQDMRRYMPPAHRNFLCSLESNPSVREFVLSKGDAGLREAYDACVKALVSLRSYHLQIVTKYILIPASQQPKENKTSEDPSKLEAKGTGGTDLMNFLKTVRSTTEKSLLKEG
Experimental: 1) Testing Compounds for IDO Inhibitory Activity in an IDO1 Enzymatic Assay:
Recombinant full-length human IDO1 with a N-terminal hexahistidine tag expressed in E. coli and purified to homogeneity is incubated at a final concentration of 2 nM in assay buffer consisting of 37.5 mM phosphate buffer at pH6.5 supplemented with 10 mM ascorbic acid, 0.45 μM methylene blue, 50 U/ml catalase, 0.01% BSA, and 0.01% Tween 20 (protocol modified from Seegers et al, JBS 2014). Example compounds are serially diluted in DMSO, further diluted in phosphate buffer, and added to the enzyme at final concentrations ranging from 10 μM to 0.5 nM. The final DMSO concentration is 0.6%. Following a pre-incubation of 30 minutes at RT, the reaction is started by the addition of L-tryptophan at a final concentration of 5 μM in assay buffer. After 30 minutes of incubation at RT, 3 μL of the 20 μl reaction mixture are transferred to a 384 deep well plate containing 25 μL of deionized water. 100 μl of 200 nM L-Tryptophan-(indole-d5) in cold 100% methanol are added followed by a 10 minutes centrifugation at 3220×g at 4° C. An additional 75 μL of deionized water are then added followed by a 10 minutes centrifugation at 3220×g at 4° C. The product of the reaction N′-Formylkynurenine (NFK) is quantified by LCMS and normalized to the L-Tryptophan-(indole-d5) signal. Samples with 0.6% DMSO (0% effect) and a TDO/IDO inhibitor (100% effect) are used as control samples to set the parameters for the non-linear regression necessary for the determination of the half-maximal inhibitory concentration (IC50) for each compound. For each compound concentration the percentage of activity compared to 0% and 100% effect is calculated as average±STDEV (each concentration measured in duplicate). IC50 values and curves are generated with XLfit software (IDBS) using Dose-Response One Site model 203 (four parameter logistic curve model). The calculated IC50 values may fluctuate depending on the daily assay performance. Fluctuations of this kind are known to those skilled in the art. When compounds are measured multiple times, mean values are given.

[2] = target: T2, IDO1 in SKOV3 cells (Homo sapiens, UniProt P14902); test: Cell-based IDO inhibitory activity in IFNγ-stimulated SKOV3 cells (NFK + kynurenine by LCMS); settings: IFNγ 50 ng/ml, 200 uM L-tryptophan, 24 hours
T2 construct: SKOV3 cells (NCI, No. 0503405) which upregulate IDO1 after stimulation with IFNγ; host or cells: SKOV3 cells stimulated with IFNγ
T2 sequence (P14902 whole entry): as above
From the text: 3) Testing Compounds for IDO/TDO Inhibitory Activity and Toxicity in Cell-Based Assays
SW48 cells (ATCC, CCL-231) are used to measure compounds for TDO inhibitory activity and are routinely maintained in DMEM high glucose/GlutaMAX™/pyruvate 90% (v/v), FCS 10% (v/v), Penicilin/streptomycin 1% (v/v). SKOV3 cells (NCI, No. 0503405) which upregulate IDO1 after stimulation with IFNγ are used to measure compounds for IDO inhibitory activity. SKOV3 cells are routinely maintained in RPMI 90% (v/v), FCS 10% (v/v), Penicilin/streptomycin 1% (v/v). SW48 or SKOV3 cells are seeded in 384 well plates at a density of 8000 cells in 45 ul per well or 4000 cells in 45 ul per well, respectively. Plates are incubated at 37° C./5% CO2 for 24 hours. On the next day, 10 ul compound in serial dilutions (tested concentration range 10 uM-40 nM) and 200 uM L-tryptophan are added (SKV03 receive in addition IFNγ at a final concentration of 50 ng/ml). After 24 hours of incubation at 37° C./5% CO2, 3 ul of the supernatant per well is transferred to 25 ul H2O per well in a 384 deep well plate and 25 ul of the supernatant per well is transferred to waste. The SKOV3 and SW48 cell plates with 25 ul supernatant per well remaining are used to measure viability (see below). The 384 deep well plate containing 3 ul supernatant and 25 ul H2O per well are further processed for LCMS: After the addition of 100 ul L-tryptophan-(indole-d5) (Sigma 615862) at 200 nM in methanol, the 384 deep well plates are centrifuged for 10 minutes at 3220×g at 4° C., 75 ul H2O is added per well and plates centrifuged again for 10 minutes at 3220×g at 4° C. N-formylkynurenine and kynurenine are quantified by LCMS, normalized to the internal standard L-tryptophan-(indole-d5) and the sum is calculated. Samples with 0.2% DMSO (0% effect) and a TDO/IDO inhibitor (100% effect) are used as control samples to set the parameters for the non-linear regression necessary for the determination of the IC50 for each compound. For each compound concentration the percentage of activity compared to 0% and 100% effect is calculated as average±STDEV (each concentration measured in duplicate). IC50 values and curves are generated with XLfit software (IDBS) using Dose-Response One Site model 203. The calculated IC50 values may fluctuate depending on the daily cellular assay performance. Fluctuations of this kind are known to those skilled in the art. When compounds are measured multiple times, mean values are given.

[3] = target: T3, Recombinant human TDO comprising amino acids 19-407 (Homo sapiens, UniProt P48775); test: TDO2 enzymatic assay (NFK quantified by LCMS); format: biochemical; settings: 15 nM enzyme, 200 μM L-tryptophan, 30 min pre-incubation, pH7; mean if measured multiple times; read-out: hTDO activity (IC50 in nM)
T3 construct: human TDO comprising amino acids 19-407; hexahistidine (N); made in house; host or cells: E. coli
T3 sequence (P48775 19-406 limits assumed): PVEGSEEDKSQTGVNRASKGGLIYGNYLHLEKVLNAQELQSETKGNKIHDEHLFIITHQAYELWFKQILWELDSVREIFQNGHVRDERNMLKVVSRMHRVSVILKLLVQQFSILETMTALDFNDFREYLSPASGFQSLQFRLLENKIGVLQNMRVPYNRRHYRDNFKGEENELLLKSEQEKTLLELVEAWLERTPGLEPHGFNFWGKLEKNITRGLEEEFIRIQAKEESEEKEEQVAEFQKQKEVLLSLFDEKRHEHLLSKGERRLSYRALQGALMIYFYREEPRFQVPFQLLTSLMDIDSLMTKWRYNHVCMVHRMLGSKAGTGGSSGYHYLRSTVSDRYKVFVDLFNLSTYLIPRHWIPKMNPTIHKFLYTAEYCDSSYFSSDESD
Experimental: 2) Testing Compounds for TDO Inhibitory Activity in a TDO2 Enzymatic Assay:
Recombinant human TDO comprising amino acids 19-407 with a N-terminal hexahistidine tag expressed in E. coli and purified to homogeneity is incubated at a final concentration of 15 nM in assay buffer consisting of 75 mM phosphate buffer at pH7 supplemented with 100 μM ascorbic acid, 50 U/ml Catalase, 0.01% BSA, and 0.01% Tween 20 (protocol modified from Seegers et al, JBS 2014). Example compounds are serially diluted in DMSO, further diluted in phosphate buffer, and added to the reaction mixture at final concentrations ranging from 10 μM to 0.5 nM. The final DMSO concentration is 0.6%. Following a pre-incubation of 30 minutes at RT, the reaction is started by the addition of L-tryptophan at a final concentration of 200 μM in assay buffer. After 30 minutes of incubation at RT, 3 μL of the reaction mixture are transferred to a 384 deep well plate containing 25 μL of deionized water. 100 μl of 200 nM L-Tryptophan-(indole-d5) in cold 100% methanol are added followed by a 10 minutes centrifugation at 3220×g at 4° C. An additional 75 μL of deionized water are then added followed by a 10 minutes centrifugation at 3220×g at 4° C. The product of the reaction N′-Formylkynurenine (NFK) is quantified by LCMS and normalized to the L-Tryptophan-(indole-d5) signal. Samples with 0.6% DMSO (0% effect) and a TDO/IDO inhibitor (100% effect) are used as control samples to set the parameters for the non-linear regression necessary for the determination of the half-maximal inhibitory concentration (IC50) for each compound. For each compound concentration the percentage of activity compared to 0% and 100% effect is calculated as average±STDEV (each concentration measured in duplicate). IC50 values and curves are generated with XLfit software (IDBS) using Dose-Response One Site model 203 (four parameter logistic curve model). The calculated IC50 values may fluctuate depending on the daily assay performance. Fluctuations of this kind are known to those skilled in the art. When compounds are measured multiple times, mean values are given.

Compound | IC50 [1] | IC50 [2] | IC50 [3]
O[C@@H](c1cn(-c2ccc(OCC3(F)COC3)c(F)c2)nn1)c1c(C2CC2)ncc2cncn12 [Example 28, (R)-(6-Cyclopropyl-imidazo[1,5-a]pyrazin-5-yl)-{1-[3-fluoro-4-(3-fluoro-oxetan-3-ylmethoxy)-phenyl]-1H-[1,2,3]triazol-4-yl}-methanol] | 6.28 nM | 19.5 nM | > 10200 nM
O[C@@H](c1cn(-c2ccc(N3CCCC3)cc2)nn1)c1c(C2CC2)ncc2cncn12 [Example 40, (R)-(6-Cyclopropyl-imidazo[1,5-a]pyrazin-5-yl)-[1-(4-pyrrolidin-1-yl-phenyl)-1H-[1,2,3]triazol-4-yl]-methanol] | 16.5 nM | 154 nM | > 10200 nM
Oc1ccc(-n2cc(C(O)c3c(C4CC4)ccc4cncn34)nn2)cc1Cl (racemic) [Example 7, rac-2-Chloro-4-{4-[(6-cyclopropyl-imidazo[1,5-a]pyridin-5-yl)-hydroxy-methyl]-[1,2,3]triazol-1-yl}-phenol] | 3.77 nM | 6.12 nM | > 10200 nM
Oc1ccc(-n2cc([C@H](O)c3c(C4CC4)ncc4cncn34)nn2)cc1Cl [Example 10a, 2-Chloro-4-{4-[(R)-(6-cyclopropyl-imidazo[1,5-a]pyrazin-5-yl)-hydroxy-methyl]-[1,2,3]triazol-1-yl}-phenol] | 2.93 nM | 12.5 nM | > 10200 nM
Oc1ccc(-n2cc(C(O)c3c(C4CC4)ncc4cncn34)nn2)cc1Cl (racemic) [Example 10, rac-2-Chloro-4-{4-[(6-cyclopropyl-imidazo[1,5-a]pyrazin-5-yl)-hydroxy-methyl]-[1,2,3]triazol-1-yl}-phenol] | 9.6 nM | 25.4 nM | > 10200 nM
CN(C)c1ccc(-n2cc([C@H](O)c3c(C4CC4)ncc4cncn34)nn2)cc1 [Example 44, (R)-(6-Cyclopropyl-imidazo[1,5-a]pyrazin-5-yl)-[1-(4-dimethylamino-phenyl)-1H-[1,2,3]triazol-4-yl]-methanol] | 14.5 nM | 377 nM | > 10200 nM
OC(c1ccc(-c2ccccc2)s1)c1c(Cl)ccc2cncn12 (racemic) [Ref4, rac-(6-Chloro-imidazo[1,5-a]pyridin-5-yl)-(5-phenyl-thiophen-2-yl)-methanol, reference compound] | 275 nM | 8830 nM | 8650 nM
COc1cc(F)c(-n2cc([C@H](O)c3c(Cl)ccc4cncn34)nn2)cc1F [Example 31, (R)-(6-Chloro-imidazo[1,5-a]pyridin-5-yl)-[1-(2,5-difluoro-4-methoxy-phenyl)-1H-[1,2,3]triazol-4-yl]-methanol] | 1.13 nM | 9.2 nM | > 10200 nM
Oc1ccc(-n2cc(C(O)c3c(C4CC4)ccc4cncn34)nn2)cc1Cl (single isomer, unassigned) [Example 7a] | 2.12 nM | 4.84 nM | > 10200 nM
Cc1ccc2cncn2c1[C@@H](O)c1cn(-c2ccccc2)nn1 [Example 2a, (R)-(6-Methyl-imidazo[1,5-a]pyridin-5-yl)-(1-phenyl-1H-[1,2,3]triazol-4-yl)-methanol] | 4.29 nM | 84.9 nM | > 10200 nM
CCOc1ccc(-n2cc(C(O)c3c(C4CC4)ncc4cncn34)nn2)cn1 (racemic) [Example 13, rac-(6-Cyclopropyl-imidazo[1,5-a]pyrazin-5-yl)-[1-(6-ethoxy-pyridin-3-yl)-1H-[1,2,3]triazol-4-yl]-methanol] | 27.2 nM | 326 nM | > 10200 nM
COc1ccc(-n2cc([C@H](O)c3c(C4CC4)ncc4cncn34)nn2)c(F)c1Cl [Example 33, (R)-[1-(3-Chloro-2-fluoro-4-methoxy-phenyl)-1H-[1,2,3]triazol-4-yl]-(6-cyclopropyl-imidazo[1,5-a]pyrazin-5-yl)-methanol] | 5.33 nM | 127 nM | > 10200 nM
COc1ccc(-n2cc([C@H](O)c3c(Cl)ccc4cncn34)nn2)cc1 [Example 30, (R)-(6-Chloro-imidazo[1,5-a]pyridin-5-yl)-[1-(4-methoxy-phenyl)-1H-[1,2,3]triazol-4-yl]-methanol] | 3.68 nM | 52.4 nM | 8600 nM
OC(c1cn(-c2ccccc2)nn1)c1c(C2CC2)ncc2cncn12 (racemic) [Example 3, rac-(6-Cyclopropyl-imidazo[1,5-a]pyrazin-5-yl)-(1-phenyl-1H-[1,2,3]triazol-4-yl)-methanol] | 41 nM | 470 nM | > 10200 nM
Oc1ccc(-n2cc(C(O)c3c(C4CC4)ccc4cncn34)nn2)cc1 (racemic) [Example 14, rac-4-{4-[(6-Cyclopropyl-imidazo[1,5-a]pyridin-5-yl)-hydroxy-methyl]-[1,2,3]triazol-1-yl}-phenol] | 5.05 nM | 34.6 nM | > 10200 nM
